Measured values published in ChEMBL document CHEMBL1201862, “PubChem BioAssay data set” (2004).
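The compound was tested at five concentrations on cells cultured in 96-well plates, with a 48-hour exposure period. The concentration for 50% growth inhibition is given as GI50.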 Active and inactive are the calls of the source. No stated cut-off is given here; in the data, active = GI50 up to about 1.1 µM and inactive = higher.

Experiments:
Assay in all cases: NCI-60 cell line screen, 48 h
[1] = system: HL-60
[2] = system: EKVX
[3] = system: NCI-H522
[4] = system: OVCAR-5
[5] = system: MOLT-4
[6] = system: SF-539
[7] = system: RXF 393
[8] = system: KM12
[9] = system: A498
[10] = system: HOP-62
[11] = system: DU-145
[12] = system: SK-MEL-5
[13] = system: MDA-MB-435
[14] = system: SR
[15] = system: CCRF-CEM
[16] = system: IGROV-1
[17] = system: NCI-H460
[18] = system: HCT-116
[19] = system: SK-OV-3
[20] = system: M14

Row | SMILES | GI50 [1] | GI50 [2] | GI50 [3] | GI50 [4] | GI50 [5] | GI50 [6] | GI50 [7] | GI50 [8] | GI50 [9] | GI50 [10] | GI50 [11] | GI50 [12] | GI50 [13] | GI50 [14] | GI50 [15] | GI50 [16] | GI50 [17] | GI50 [18] | GI50 [19] | GI50 [20]
1 | O=C(NCCN1CCOCC1)c1cn2c(ccc3sc4ccccc4c(=O)c32)n1 | 8.02 µM (inactive) | > 100 µM (inactive) | 10.7 µM (inactive) | 10.7 µM (inactive) | 3.3 µM (inactive) | 45.3 µM (inactive) | 22 µM (inactive) | > 100 µM (inactive) | 17.3 µM (inactive) | 12.3 µM (inactive) | > 100 µM (inactive) | 9.77 µM (inactive) | 16.4 µM (inactive) | 9.73 µM (inactive) | > 10 µM (inactive) | 22.9 µM (inactive) | 4.02 µM (inactive) | 5.22 µM (inactive) |  | 
2 | Nc1nc(Cl)cc(NCC2(CO)CC(O)C2)n1 (stereo not drawn) | > 100 µM (inactive) | > 100 µM (inactive) | > 100 µM (inactive) | > 100 µM (inactive) | > 100 µM (inactive) | > 100 µM (inactive) | > 100 µM (inactive) | > 100 µM (inactive) | > 100 µM (inactive) | > 100 µM (inactive) | > 100 µM (inactive) | > 100 µM (inactive) | > 100 µM (inactive) | > 100 µM (inactive) | > 100 µM (inactive) | > 100 µM (inactive) | > 100 µM (inactive) | > 100 µM (inactive) | > 100 µM (inactive) | 
3 | COc1ccc(-c2c(N)n(-c3cccc(C(=O)O)c3)c(=O)c3cc([N+](=O)[O-])ccc23)cc1 | > 100 µM (inactive) | > 100 µM (inactive) | > 100 µM (inactive) | > 100 µM (inactive) | > 100 µM (inactive) | > 100 µM (inactive) | > 100 µM (inactive) | > 100 µM (inactive) | > 100 µM (inactive) | > 100 µM (inactive) | > 100 µM (inactive) | > 100 µM (inactive) | > 100 µM (inactive) | > 100 µM (inactive) | > 100 µM (inactive) | > 100 µM (inactive) | > 100 µM (inactive) | > 100 µM (inactive) | > 100 µM (inactive) | > 100 µM (inactive)
4 | Nc1nc(S)nc2snnc12 | > 100 µM (inactive) |  | > 100 µM (inactive) | > 100 µM (inactive) | > 100 µM (inactive) | > 100 µM (inactive) | > 100 µM (inactive) | > 100 µM (inactive) | > 100 µM (inactive) | > 100 µM (inactive) | > 100 µM (inactive) | > 100 µM (inactive) | > 100 µM (inactive) | > 100 µM (inactive) | > 100 µM (inactive) | > 100 µM (inactive) | > 100 µM (inactive) | > 100 µM (inactive) | > 100 µM (inactive) | 
5 | FC1(F)[Se]C2C3CCC(C3)C2C1(F)F (stereo not drawn) |  | > 100 µM (inactive) | > 100 µM (inactive) | > 100 µM (inactive) | > 100 µM (inactive) | > 100 µM (inactive) | > 100 µM (inactive) | > 100 µM (inactive) | > 100 µM (inactive) | > 100 µM (inactive) | > 100 µM (inactive) | > 100 µM (inactive) | > 100 µM (inactive) | > 100 µM (inactive) |  | > 100 µM (inactive) | > 100 µM (inactive) | 56.2 µM (inactive) | > 100 µM (inactive) | > 100 µM (inactive)
6 | O=C(c1ccc(Cl)cc1Cl)N(Cc1cccnc1)C(=S)N(Cc1cccnc1)C(=O)c1ccc(Cl)cc1Cl | 3.55 µM (inactive) | 15.7 µM (inactive) | 2.94 µM (inactive) | 10.7 µM (inactive) | 4.06 µM (inactive) | 2.22 µM (inactive) | 6.43 µM (inactive) | 2.96 µM (inactive) | 10.3 µM (inactive) | 2.37 µM (inactive) | 3.39 µM (inactive) | 3.33 µM (inactive) | 17.7 µM (inactive) | 3.4 µM (inactive) | 1.86 µM (inactive) |  | 15.5 µM (inactive) | 2.48 µM (inactive) | 19.3 µM (inactive) | 3.01 µM (inactive)
7 | O=C(CCc1cccc(O)c1)NCCc1cccc(OCc2ccccc2)c1 | 28.4 µM (inactive) | 21.5 µM (inactive) | 17.1 µM (inactive) | 24.7 µM (inactive) | 11 µM (inactive) | 16.8 µM (inactive) | 19.7 µM (inactive) | 6.81 µM (inactive) | 25.4 µM (inactive) | 15.3 µM (inactive) | 27.5 µM (inactive) | 16 µM (inactive) | 14.9 µM (inactive) | 25 µM (inactive) | 12.6 µM (inactive) | 8.93 µM (inactive) | 15.6 µM (inactive) | 16.7 µM (inactive) | 23.6 µM (inactive) | 16.2 µM (inactive)
8 | CN(C)/C=N/c1ccc2c3c(cccc13)-c1ccccc1-2 | 5.58 µM (inactive) | 10.5 µM (inactive) | 3.66 µM (inactive) | 11.1 µM (inactive) | 10.1 µM (inactive) | 12.1 µM (inactive) | 7.83 µM (inactive) |  | 10.1 µM (inactive) | 16 µM (inactive) | 12.7 µM (inactive) | 14.9 µM (inactive) | 15.1 µM (inactive) | 10.3 µM (inactive) | 2.23 µM (inactive) | 15.5 µM (inactive) |  | 15.4 µM (inactive) | 13.7 µM (inactive) | 10.2 µM (inactive)
9 | CC(C)=CCNc1ncnc2c1ncn2CCC#N | > 100 µM (inactive) |  | > 100 µM (inactive) | > 100 µM (inactive) | > 100 µM (inactive) | > 100 µM (inactive) | 2.21 µM (inactive) | > 100 µM (inactive) | > 100 µM (inactive) | > 100 µM (inactive) | > 100 µM (inactive) | > 100 µM (inactive) | > 100 µM (inactive) | > 100 µM (inactive) | > 100 µM (inactive) | > 100 µM (inactive) | > 100 µM (inactive) | > 100 µM (inactive) | > 100 µM (inactive) | > 100 µM (inactive)
10 | O=C(O[C@H]1[C@@H](O)[C@H](n2cnc3c(Cl)ncnc32)O[C@@H]1COC(c1ccccc1)(c1ccccc1)c1ccccc1)c1ccccc1 | 9.91 µM (inactive) | 14.8 µM (inactive) | 5.09 µM (inactive) | > 100 µM (inactive) | 3.04 µM (inactive) | 20 µM (inactive) | 16.6 µM (inactive) | 16.1 µM (inactive) | 17.2 µM (inactive) | 16.7 µM (inactive) | 1.91 µM (inactive) | 8.47 µM (inactive) | 26.8 µM (inactive) | 2.67 µM (inactive) | 3.55 µM (inactive) | 15.9 µM (inactive) | 17.5 µM (inactive) | 40.9 µM (inactive) | 71 µM (inactive) | 26.3 µM (inactive)
11 | CCCCCCCCCCCCC(O)C1CCC(C(O)CCCCCCC(O)CCCCCCCC2=CC(C)OC2=O)O1 (stereo not drawn) | 3.92 µM (inactive) | 1.71 µM (inactive) | 16.5 µM (inactive) | > 10 µM (inactive) | 7.29 µM (inactive) | > 10 µM (inactive) | 22.9 µM (inactive) | 32.4 µM (inactive) | 32.8 µM (inactive) | 42.3 µM (inactive) | > 10 µM (inactive) | 1.19 µM (inactive) | 2.67 µM (inactive) | 0.407 µM (active) | 3.1 µM (inactive) | 35.5 µM (inactive) | 12.9 µM (inactive) | 0.127 µM (active) |  | 19.2 µM (inactive)
12 | O=C1NCC2(CCNCC2)N1c1ccccc1 | > 100 µM (inactive) | > 100 µM (inactive) | > 100 µM (inactive) | > 100 µM (inactive) | > 100 µM (inactive) | > 100 µM (inactive) | > 100 µM (inactive) | > 100 µM (inactive) | > 100 µM (inactive) | > 100 µM (inactive) | > 100 µM (inactive) | > 100 µM (inactive) | > 100 µM (inactive) | > 100 µM (inactive) | > 100 µM (inactive) | > 100 µM (inactive) | > 100 µM (inactive) | > 100 µM (inactive) |  | > 100 µM (inactive)
13 | O=C(O)c1c(CC(Cc2ccccc2)C(=O)O)ccc2c1CCC2 (stereo not drawn) | > 100 µM (inactive) | > 100 µM (inactive) | > 100 µM (inactive) | > 100 µM (inactive) | > 100 µM (inactive) | > 100 µM (inactive) | > 100 µM (inactive) | > 100 µM (inactive) | > 100 µM (inactive) | > 100 µM (inactive) | > 100 µM (inactive) | > 100 µM (inactive) | > 100 µM (inactive) | > 100 µM (inactive) | > 100 µM (inactive) | > 100 µM (inactive) | > 100 µM (inactive) | > 100 µM (inactive) | > 100 µM (inactive) | > 10 µM (inactive)
14 | COc1ccc(C(C)NNC(=O)c2cc[n+]([BH2-]C#N)cc2)c(OC)c1 (stereo not drawn) | > 100 µM (inactive) | > 100 µM (inactive) | > 100 µM (inactive) | > 100 µM (inactive) | > 100 µM (inactive) | > 100 µM (inactive) | > 100 µM (inactive) | > 100 µM (inactive) | > 100 µM (inactive) |  | > 100 µM (inactive) | > 100 µM (inactive) | > 100 µM (inactive) | > 100 µM (inactive) | > 100 µM (inactive) | > 100 µM (inactive) | > 100 µM (inactive) |  |  | > 100 µM (inactive)
15 | C/C(=N\N=C(/S)SCc1ccccc1)c1ccccn1 | < 0.01 µM (active) | < 0.01 µM (active) | 0.311 µM (active) |  | < 0.01 µM (active) | 0.303 µM (active) | 1.28 µM (inactive) | 0.266 µM (active) | 1.41 µM (inactive) | < 0.01 µM (active) | 1.54 µM (inactive) | 0.0635 µM (active) | 1.02 µM (active) | < 0.01 µM (active) | < 0.01 µM (active) | < 0.01 µM (active) | 0.26 µM (active) | < 0.01 µM (active) | < 0.01 µM (active) | < 0.0267 µM (active)
